Laboratory results taken from PubChem BioAssay AID1963862 (Molecular Pharmacology Branch, DTP, NCI, 2024).
pIC50: −log10 of the molar value.

Test system: KRAS patient-derived spheroids with HUVEC/MSC, viability
Assay: Anticancer human tumor 941728-121-R-J1-PDC patient-derived lung adenocarcinoma cell line growth inhibition [KRAS2]
Conditions: for pIC50: curve of first compound; for viability, T/C: stronger effect = lower value
How it was run: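 Combination screen of spheroid viability in tumor-cell co-cultures with endothelial (HUVEC) and mesenchymal stem cell stroma. Each agent was tested in half-log dilutions, topping at clinical Cmax or at 10 microM without a known Cmax.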

[1] = second compound 0.1 µM, first compound 0.0316 µM
[2] = second compound 0.1 µM, first compound 0.1 µM
[3] = second compound 0.1 µM, first compound 0.316 µM
[4] = second compound 0.1 µM, first compound 1 µM
[5] = second compound 0.1 µM, first compound 3.16 µM
[6] = second compound 0.316 µM, first compound 0.0316 µM
[7] = second compound 0.316 µM, first compound 0.1 µM
[8] = second compound 0.316 µM, first compound 0.316 µM
[9] = second compound 0.316 µM, first compound 1 µM
[10] = second compound 0.316 µM, first compound 3.16 µM
[11] = second compound 1 µM, first compound 0.0316 µM
[12] = second compound 1 µM, first compound 0.1 µM
[13] = second compound 1 µM, first compound 0.316 µM
[14] = second compound 1 µM, first compound 1 µM
[15] = second compound 1 µM, first compound 3.16 µM
[16] = second compound 3.16 µM, first compound 0.0316 µM
[17] = second compound 3.16 µM, first compound 0.1 µM
[18] = second compound 3.16 µM, first compound 0.316 µM
[19] = second compound 3.16 µM, first compound 1 µM
[20] = second compound 3.16 µM, first compound 3.16 µM
[21] = second compound 10 µM, first compound 0.0316 µM
[22] = second compound 10 µM, first compound 0.1 µM
[23] = second compound 10 µM, first compound 0.316 µM
[24] = second compound 10 µM, first compound 1 µM
[25] = second compound 10 µM, first compound 3.16 µM
[26] = second compound 0.1 µM, first compound 0.01 µM
[27] = second compound 0.316 µM, first compound 0.01 µM
[28] = second compound 1 µM, first compound 0.01 µM
[29] = second compound 3.16 µM, first compound 0.01 µM
[30] = second compound 10 µM, first compound 0.01 µM
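Note: spheroids exposed to agents for seven days before readout.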

CC(C)NCC(C(=O)N1CCN(c2ncnc3c2C(C)CC3O)CC1)c1ccc(Cl)cc1 (stereo not given) + CNCc1ccccc1-c1csc(C(C)Nc2nc(C)nc3cc(OC)c(OC)cc23)c1
pIC50 (second compound 0.1 µM): 6.66 | pIC50 (second compound 0.316 µM): > 7.50 | pIC50 (second compound 1 µM): > 7.50 | pIC50 (second compound 3.16 µM): > 7.50 | pIC50 (second compound 10 µM): > 7.50 | viability, T/C [1]: 68.6% | viability, T/C [2]: 57% | viability, T/C [3]: 47.9% | viability, T/C [4]: 33.3% | viability, T/C [5]: 28.1% | viability, T/C (second compound 0.1 µM, first compound 10 µM): 16.6% | viability, T/C [6]: 42.3% | viability, T/C [7]: 42.9% | viability, T/C [8]: 29.1% | viability, T/C [9]: 24.7% | viability, T/C [10]: 22.4% | viability, T/C (second compound 0.316 µM, first compound 10 µM): 12.4% | viability, T/C [11]: 23.9% | viability, T/C [12]: 33.2% | viability, T/C [13]: 21.2% | viability, T/C [14]: 16.1% | viability, T/C [15]: 6.11% | viability, T/C (second compound 1 µM, first compound 10 µM): 4.4% | viability, T/C [16]: 0.08% | viability, T/C [17]: 0.12% | viability, T/C [18]: 0.11% | viability, T/C [19]: 0.08% | viability, T/C [20]: 0.04% | viability, T/C (second compound 3.16 µM, first compound 10 µM): 0.16% | viability, T/C [21]: 0.16% | viability, T/C [22]: 0.15% | viability, T/C [23]: 0.12% | viability, T/C [24]: 1.66% | viability, T/C [25]: 0.11% | viability, T/C (second compound 10 µM, first compound 10 µM): 0.25%

CC1COCCN1c1cc(-c2ccnn2C)c2ccnc(-c3ccn[nH]3)c2n1 (stereo not given) + CNCc1ccccc1-c1csc(C(C)Nc2nc(C)nc3cc(OC)c(OC)cc23)c1
pIC50 (second compound 0.1 µM): 7.63 | pIC50 (second compound 0.316 µM): > 8.00 | pIC50 (second compound 1 µM): > 8.00 | pIC50 (second compound 3.16 µM): > 8.00 | pIC50 (second compound 10 µM): > 8.00 | viability, T/C [26]: 63.1% | viability, T/C [1]: 43.3% | viability, T/C [2]: 39.4% | viability, T/C [3]: 31.7% | viability, T/C [4]: 28.2% | viability, T/C [5]: 26.8% | viability, T/C [27]: 41.5% | viability, T/C [6]: 37.1% | viability, T/C [7]: 29% | viability, T/C [8]: 22.8% | viability, T/C [9]: 22.9% | viability, T/C [10]: 22.6% | viability, T/C [28]: 24.9% | viability, T/C [11]: 29.4% | viability, T/C [12]: 18.8% | viability, T/C [13]: 19% | viability, T/C [14]: 14% | viability, T/C [15]: 11.4% | viability, T/C [29]: 1.36% | viability, T/C [16]: 1.18% | viability, T/C [17]: 1.37% | viability, T/C [18]: 0.47% | viability, T/C [19]: 0.45% | viability, T/C [20]: 0.62% | viability, T/C [30]: 0.73% | viability, T/C [21]: 0.11% | viability, T/C [22]: 0.25% | viability, T/C [23]: 0.12% | viability, T/C [24]: 0.14% | viability, T/C [25]: 0.17%

CCN1CCN(Cc2ccc(Nc3ncc(F)c(-c4cc(F)c5nc(C)n(C(C)C)c5c4)n3)nc2)CC1 + CNCc1ccccc1-c1csc(C(C)Nc2nc(C)nc3cc(OC)c(OC)cc23)c1
pIC50 (second compound 0.1 µM): 8.21 | pIC50 (second compound 0.316 µM): > 8.50 | pIC50 (second compound 1 µM): > 8.50 | pIC50 (second compound 3.16 µM): > 8.50 | pIC50 (second compound 10 µM): > 8.50 | viability, T/C (second compound 0.1 µM, first compound 0.00316 µM): 58.2% | viability, T/C [26]: 43.9% | viability, T/C [1]: 40% | viability, T/C [2]: 43.7% | viability, T/C [3]: 38.4% | viability, T/C [4]: 53% | viability, T/C (second compound 0.316 µM, first compound 0.00316 µM): 44% | viability, T/C [27]: 38.5% | viability, T/C [6]: 31% | viability, T/C [7]: 28.9% | viability, T/C [8]: 30.6% | viability, T/C [9]: 46.8% | viability, T/C (second compound 1 µM, first compound 0.00316 µM): 22.1% | viability, T/C [28]: 25.4% | viability, T/C [11]: 18.7% | viability, T/C [12]: 17.1% | viability, T/C [13]: 16.9% | viability, T/C [14]: 5.4% | viability, T/C (second compound 3.16 µM, first compound 0.00316 µM): 1.35% | viability, T/C [29]: 1.57% | viability, T/C [16]: 1.42% | viability, T/C [17]: 2.24% | viability, T/C [18]: 0.67% | viability, T/C [19]: 2.46% | viability, T/C (second compound 10 µM, first compound 0.00316 µM): 0.72% | viability, T/C [30]: 0.55% | viability, T/C [21]: 0.84% | viability, T/C [22]: 0.24% | viability, T/C [23]: 0.74% | viability, T/C [24]: 0.15%
